Results reported in patent publication US8138170B2, “Immunosuppressive Ningalin compounds” (Memorial Sloan-Kettering Cancer Center, priority 2004, dated 2012).
“And” between values parts separate entries of the source, which are not always exact repeats. Identical values can stand only once.

Key:
human lymphocytes = test: Inhibition of PHA-stimulated lymphocyte proliferation ([3H]thymidine incorporation); type: cell-based; settings: PHA-stimulated human lymphocyte proliferation; read-out: Immunosuppressive Effect (IC50 in μM) [B]
Description: Phytohemagglutinin (phytostigma or “PHA”) induces proliferation of human lymphocytes.

[1] = Cytotoxicity measured by cell proliferation inhibition; type: cell-based
[2] = test system: Lewis (LEW) heart allografts; test: Heterotopic heart transplantation in rats; type: in vivo, Rat ACI recipients
Description: (§1) Heterotopic heart transplantation was performed in rats and mice. In brief, heart transplantation was performed by previously described modified method. Hearts harvested from donors were perfused with chilled saline and immediately transplanted to recipients under full anesthesia. Suture 10-0 in rats and 12-0 in mice (Ethicon; Somerville, N.J.) was used to perform anastomosis of aorta to aorta and pulmonary artery to vena cava. Heartbeat was evaluated daily and the day of complete cessation was considered rejection. Animals that died within three days after transplantation were excluded from the analysis (less than 5%).
Rat ACI (RT1*) recipients of Lewis (LEW; RT1^1) heart allografts were untreated or were treated for 7 days by daily (QDx7) i.p. injections with 20 mg/kg N5. Untreated recipients rejected heart allografts in a mean survival time (MST) of 8.40±0.55 (n=5).

C57BL/6 heart allografts = test: Heterotopic heart transplantation in mice; type: in vivo, Balb/c mice
Description: as §1
Mice were also transplanted with heart allografts. In particular, untreated Balb/c (H-2^d) recipients rejected C57BL/6 (H-2^b) heart allografts at a MST of 7.8±0.84 days (n=5). Treatment with 40 mg/kg N5, QDx7, extended heart allograft survival to 13.33±2.52 days, which increased life span 71% (n=3; p<0.03).
Mice heart allografts were treated with 20 mg/kg of N3, QDx7, i.p. In particular, untreated Balb/c (H-2^d) recipients rejected C57BL/6 ([…]) heart allografts at a MST of […] days (n=5). Treatment with 20 mg/kg of N3 (i.e., one-half of dose of N5) extended heart allograft survival to 18.75±3.86 days (n=4; p<0.0005), an increase in lifespan of 140%.

LEW kidney allografts = test: Orthotopic kidney transplantation in rats; type: in vivo, ACI rats
Description: Orthotopic kidney transplantation was performed in rats. In particular, the left kidney of donor was perfused through the aorta with heparinized saline (4° C.) and then harvested after the renal artery, renal vein, and ureter were cut off. End-to-end anastomosis of donor and recipient renal arteries and veins were performed using 10-0 nylon suture (Ethicon; Somerville, N.J.). The recipients' native kidneys were removed on the day of transplantation. Animals that died within three days after transplantation were excluded from the analysis (less than 5%).
The effect of N5 (administered in DMSO, 20 mg/kg, i.p. QDx7) on kidney allograft survival was examined. Although untreated ACI recipients acutely rejected LEW kidney allografts at 8.8±0.75 days, a 7-day i.p. daily treatment extended survivals to 26.50±2.12 days, which increased lifespan 200% (n=2; p<0.03).

[3] = test system: carrageenan-induced paw edema; test: Carrageenan-induced paw edema; type: in vivo, B6D2F1 mice; settings: for Pedis Area: individual mice 1-4; for Pedis Area, Mean: mean of 4 mice
Description: Carrageene (1%, 30 μl) was injected i.m. into the pedis of B6D2F1 mice (4 mice/group) to induced edemic inflammation at 0 hours. N3, N5 (i.p. injection) or oral administration of aspirin 500 mg/kg, or topical application of hydrocortisone cream (1%) or Lidex cream (0.05%) to the pedis skins were given at −1, 6, 12 and 24 hours. The control mice received dimethylsulfoxide (the vehicle of ningalins). The pedis areas (in mm^2) were measured at 0, 3, 6, 12, 24, 36 and 48 hours.

SMILES: COc1ccc(CCn2c(C(=O)N(C)C)c(-c3ccc(OC)c(OC)c3)c3c4cc(OC)c(OC)cc4oc(=O)c32)cc1OC [Ningalin N5, 1-(3,4-Dimethoxy-phenyl)-3-[2-(3,4-dimethoxy-phenyl)-ethyl]-7,8-dimethoxy-4-oxo-3,4-dihydro-5-oxa-3-aza-cyclopenta[α]naphthalene-2-carboxylic acid dimethylamide]
- IC50 (human lymphocytes): 0.17 ± 0.01 µM
- IC50 [1]: 17.1 ± 4.6 µM
- MST ± SD days (heart allograft survival) ([2]; ACI recipients of LEW heart, N5 20 mg/kg i.p. QDx7, 20 mg/kg): 18.67±2.52 days and 18.67 ± 2.5 days
- increased life span ([2]; heart allograft, N5 20 mg/kg i.p. QDx7, vs untreated): 122%
- Survival days (individual animals) ([2]; heart, N5 20 mg/kg, 20 mg/kg): 18 days and 19 days and 21 days
- MST ± SD days (heart allograft survival) (C57BL/6 heart allografts; B6 heart to Balb/c, N5 40 mg/kg QDx7, 40 mg/kg): 13.33±2.52 days and 13.35 ± 2.52 days
- increased life span (C57BL/6 heart allografts; heart allograft, N5 40 mg/kg QDx7, vs untreated): 71%
- Survival days (individual animals) (C57BL/6 heart allografts; heart, N5 40 mg/kg, 40 mg/kg): 11 days and 13 days and 16 days
- MST ± SD days (kidney allograft survival) (LEW kidney allografts; ACI recipients of LEW kidney, N5 in DMSO 20 mg/kg i.p. QDx7): 26.50±2.12 days
- increased life span (LEW kidney allografts; kidney allograft, N5 20 mg/kg i.p. QDx7, vs untreated): 200%
- Survival days (individual animals) (LEW kidney allografts; kidney, N5 20 mg/kg, 20 mg/kg): 26 days and 28 days
- Pedis Area ([3]; 0 hr, aspirin 500 mg/kg oral, N3 100 mg/kg i.p., N5 50 mg/kg i.p., hydrocortisone cream 1%, Lidex cream 0.05% topical, given at −1, 6, 12, 24 hours): 100 mm^2
- Pedis Area, Mean ([3]; 0 hr, doses as E35): 100 mm^2
- Pedis Area ([3]; 3 hr, doses as E35): 137.1 mm^2 and 139.2 mm^2 and 143.9 mm^2 and 132 mm^2
- Pedis Area, Mean ([3]; 3 hr, doses as E35): 138.1 mm^2
- Pedis Area ([3]; 6 hr, doses as E35): 138.1 mm^2 and 144.3 mm^2 and 146.9 mm^2 and 145.4 mm^2
- Pedis Area, Mean ([3]; 6 hr, doses as E35): 143.7 mm^2
- Pedis Area ([3]; 12 hr, doses as E35): 125.7 mm^2 and 124.7 mm^2 and 140.8 mm^2 and 141.2 mm^2
- Pedis Area, Mean ([3]; 12 hr, doses as E35): 133.1 mm^2
- Pedis Area ([3]; 24 hr, doses as E35): 125.7 mm^2 and 161.6 mm^2 and 128.6 mm^2 and 142.3 mm^2
- Pedis Area, Mean ([3]; 24 hr, doses as E35): 129.6 mm^2
- Pedis Area ([3]; 36 hr, doses as E35): 120 mm^2 and 118.6 mm^2 and 127.6 mm^2 and 142.3 mm^2
- Pedis Area, Mean ([3]; 36 hr, doses as E35): 127.1 mm^2
- Pedis Area ([3]; 48 hr, doses as E35): 120 mm^2 and 117.5 mm^2 and 130.6 mm^2 and 142.3 mm^2
- Pedis Area, Mean ([3]; 48 hr, doses as E35): 127.6 mm^2
- anti-inflammatory effect (FIG. 3) ([3]; N5 50 mg/kg i.p., N3 100 mg/kg i.p., all drugs: at 12-48 hours): produced an anti-inflammatory effect
